Experiment [1] concerns the target T1, PTP1B (Homo sapiens, UniProt P18031).
T1 construct: His; made in house; host or cells: E. coli
T1 sequence (P18031 1-435): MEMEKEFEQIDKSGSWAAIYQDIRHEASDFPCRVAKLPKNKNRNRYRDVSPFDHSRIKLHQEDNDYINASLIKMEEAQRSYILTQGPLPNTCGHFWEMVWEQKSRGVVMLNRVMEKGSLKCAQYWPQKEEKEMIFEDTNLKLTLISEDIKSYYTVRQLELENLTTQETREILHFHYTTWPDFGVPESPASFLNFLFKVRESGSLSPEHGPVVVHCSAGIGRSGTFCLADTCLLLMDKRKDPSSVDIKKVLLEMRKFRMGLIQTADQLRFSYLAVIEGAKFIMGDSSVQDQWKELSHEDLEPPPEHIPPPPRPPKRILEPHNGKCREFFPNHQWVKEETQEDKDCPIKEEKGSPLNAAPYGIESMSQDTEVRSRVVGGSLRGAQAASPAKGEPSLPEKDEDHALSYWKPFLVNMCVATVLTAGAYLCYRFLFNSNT
Briefly: PTPs activity assay (DiFMUP). It counts as biochemical. The conditions noted are these: read-out: IC50 of PTPs PTP1B.

Experiment [2] has as its target T2, TCPTP (Homo sapiens, UniProt P17706).
T2 construct: His; made in house; host or cells: E. coli
T2 sequence (P17706 1-415): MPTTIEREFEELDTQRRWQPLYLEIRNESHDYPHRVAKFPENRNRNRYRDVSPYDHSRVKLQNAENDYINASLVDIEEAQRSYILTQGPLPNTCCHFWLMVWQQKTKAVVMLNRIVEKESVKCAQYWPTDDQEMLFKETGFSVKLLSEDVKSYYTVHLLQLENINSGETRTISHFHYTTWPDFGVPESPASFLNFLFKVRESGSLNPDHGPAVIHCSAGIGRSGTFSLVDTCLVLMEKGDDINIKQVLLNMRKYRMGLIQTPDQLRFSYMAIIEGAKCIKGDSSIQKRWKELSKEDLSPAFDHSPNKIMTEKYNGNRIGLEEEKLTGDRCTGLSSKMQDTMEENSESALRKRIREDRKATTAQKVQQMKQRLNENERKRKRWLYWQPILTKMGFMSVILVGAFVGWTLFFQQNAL
Briefly: PTPs activity assay (DiFMUP). It counts as biochemical.

Experiment [3] has as its target T3, ΔSHP2 (Homo sapiens, UniProt Q06124).
T3 construct: His‐ΔSHP2, encompassing the peptide from amino acids 205–593 retaining PTP activity; His; made in house; host or cells: E. coli
T3 sequence (Q06124 205-593): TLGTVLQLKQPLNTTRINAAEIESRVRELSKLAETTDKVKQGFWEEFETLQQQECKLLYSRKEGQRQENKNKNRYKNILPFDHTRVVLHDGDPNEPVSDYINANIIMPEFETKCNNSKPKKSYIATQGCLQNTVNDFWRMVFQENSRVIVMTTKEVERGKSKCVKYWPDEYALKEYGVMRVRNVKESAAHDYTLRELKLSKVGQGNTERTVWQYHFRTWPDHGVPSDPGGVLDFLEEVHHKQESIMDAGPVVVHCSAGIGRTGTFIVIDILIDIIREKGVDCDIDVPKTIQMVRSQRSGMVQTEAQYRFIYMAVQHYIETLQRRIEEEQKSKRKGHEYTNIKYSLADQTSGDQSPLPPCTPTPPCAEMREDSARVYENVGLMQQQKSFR
The experiment in a line: PTPs activity assay (DiFMUP). Type of experiment: biochemical.

Experiment [4] concerns NCI‐H2122 cells. Briefly: Apoptosis detection (Annexin-V-FITC/PI). The conditions noted are these: 24 h. Type of experiment: cell-based, human. As for the experimental part: NCI-H2122 cells treated with the given disposal were digested with trypsin, resuspended
in cold PBS, and centrifuged at room temperature (1000×g for 5 min) to discard the
supernatant. Approximately 100,000 cells were collected and 195 μL of Annexin V-FITC
conjugate was added to gently resuspend the cells and then 5 μL of Annexin V-FITC and 10
μL of propidium iodide (PI) staining solution were added respectively. They were then
incubated at 37 °C for 10-20 min in the dark, placed on ice, and passed through a flow
cytometer (Becton, Dickinson, Calibur, USA) for online detection. […]
(1 picture or pasted object on this page, not shown here)

The IC50 is the concentration that inhibits the measured activity by half. Regarding `CCCCCCCCCCCC1=C(O)C(=O)C=C(O)C1=O` [Embelin], the IC50 was > 200 µM in experiment [1], > 200 µM in experiment [2] and 10.5 µM in experiment [3]. Besides, the effect on apoptosis entry in experiment [4] is “increased the proportion of early and late apoptotic cells”.

For `O=C1Nc2ccc(I)cc2/C1=C/c1cc(Br)c(O)c(Br)c1` [S2872, GW5074], the values for the IC50 in experiment [1], in experiment [2] and in experiment [3] were 110 µM, 322 µM and 33.8 µM, respectively.

As for `CC1(N)CCN(c2cnc(-c3cccc(Cl)c3Cl)c(N)n2)CC1` [SHP099], the effect on apoptosis result in experiment [4] is “promoted apoptosis”.

For the origin of these results see PMC12005787, “Synthetic Lethality of SHP2 and XIAP Suppresses Proliferation and Metastasis in KRAS‐mutant Nonsmall Cell Lung Cancer” (Advanced Science, 2025).
